Results reported in patent publication US4847273A, “Dihydropyridine derivatives” (Hoffmann-La Roche Inc., priority 1985, dated 1989).

Key:
[1] = Haemodynamic parameters in the narcotized dog (test B); format: in vivo; conditions: 0.03 mg/kg p.o.
From the text: B. Haemodynamic parameters in the narcotized dog:
The 4 most important measurement parameters (with respective measurement units) of the haemodynamic experiment are: (1) CBF: Coronary Blood Flow (in ml/min)--the velocity of blood flow through the coronary arteries; (2) HR: heart rate (in beats/min)--the heart frequency; (3) BP: blood pressure (in mm Hg)--the blood pressure; and (4) dp/dt: rate of increase in left ventricular pressure (in mm Hg/sec)--the rate of increase of the left ventricular pressure, as a measurement of the contractility force of the heart. The values are given as the %maximum variation from the initial value (Δ%) and the duration of this variation (t) per dosage administered.
There is thus obtained not only an overall picture of the activity of the substance, but also an estimation as to the potential selectivity for a specific part of the circulatory system in the entire organism. After the administration of an anaesthetic, the dog is intubated and respired artificially. Blood pH, pCO2, pO2 and haemoglobin are measured hourly with a blood-gas analyzer. The blood pressure (systolic and diastolic) is measured with a probe in the aorta abdominalis. The heart frequency is recorded by means of a tachometer, which is disengaged from the pressure pulse. For the other measurements the heart must firstly be opened in order that a probe can be inserted in the left ventricle (heart chamber) for the pressure measurements (dp/dt). The coronary blood flow is measured with a flowing probe in the left coronary artery (descendens).

[2] = system: ^3 H-nifedipine (or ^3 H-nitrendipine) binding, rabbit or guinea pig heart membranes; assay: 3H-Nifedipine binding determination on homogenates or partially-cleaned membranes of rabbit or guinea pig heart (test A); conditions: maximum inhibition of specific binding; nifedipine established as 100%
Description: A. ^3 H-Nifedipine binding determination:
The determination is carried out on homogenates or on partially-cleaned membranes of rabbit or guinea pig heart. The reaction mixture (0.3 ml) consists of 0.2-0.8 mg of membrane protein, 1 nM of ^3 H-nifedipine (or 0.25 nM of ^3 H-nitrendipine) and various concentrations of the test substance. The incubation lasts 30 minutes at 25° C. or 37° C. and is stopped by dilution with the incubation buffer; a filtration is subsequently carried out. The filter-bound radioactivity is measured with a scintillation counter. Specific binding, that is, receptor-bound, is defined as the difference between total and unspecific-bound radioactivity. The unspecific binding is determined in the presence of an excess of non-radioactive nifedipine (1 μM).
The activity (potency) of a compound in this test is defined by the IC50 and %maximum inhibition values (%max. inhibition). The IC50 is the substance concentration (in mol/l) which produces a half-maximum inhibition of the specific ^3 H-nifedipine (or ^3 H-nitrendipine) binding. The maximum inhibition of the specific binding is given by the %maximum inhibition value; this value is established as 100% for the reference compound nifedipine. Both parameters are extrapolated from a concentration-binding curve.

| % max. inhib. [2] [%] | Structure (SMILES) | Bp (blood pressure), % maximum variation from the initial value (Δ%) [1] [%] | Bp, duration of variation (t) [1] | CBF (Coronary Blood Flow), % maximum variation from the initial value (Δ%) [1] [%] | CBF, duration of variation (t) [1] | HR (heart rate), % maximum variation from the initial value (Δ%) [1] [%] | HR, duration of variation (t) [1] | dp/dt (rate of increase in left ventricular pressure), % maximum variation from the initial value (Δ%) [1] [%] | dp/dt, duration of variation (t) [1] |
| --- | --- | --- | --- | --- | --- | --- | --- | --- | --- |
| 100 | CCCOCCOC(=O)C1=C(C)NC(C)=C(S(=O)(=O)N(C)C)C1c1cccc([N+](=O)[O-])c1 (stereo not drawn) [A, 5-(dimethylsulfamoyl)-1,4-dihydro-2,6-dimethyl-4-(3-nitrophenyl)nicotinic acid 2-propoxyethyl ester] | -55 | 60 ' | 50 | 60 ' | -19 | 40 ' | -42 | 60 ' |
| 100 | COCCN(C)S(=O)(=O)C1=C(C)NC(C)=C(C(=O)OC(C)C)C1c1cccc([N+](=O)[O-])c1 (stereo not drawn) [C, 1,4-dihydro-2,6-dimethyl-5-[(2-methoxyethyl)methylsulfamoyl]-4-(3-nitrophenyl)nicotinic acid isopropyl ester] | -32 | > 60 ' | 108 | 20 ' | -11 | > 60 ' | -16 | > 60 ' |
| 100 | CCCCN(C)S(=O)(=O)C1=C(C)NC(C)=C(C(=O)OC(C)C)C1c1cccc([N+](=O)[O-])c1 (stereo not drawn) [B, 5-(butylmethylsulfamoyl)-1,4-dihydro-2,6-dimethyl-4-(3-nitrophenyl)nicotinic acid isopropyl ester] | -30 | 24 ' | 78 | 40 ' | -11 | > 30 ' | -2 | 20 ' |
